We go through twelve compounds from ChEMBL document CHEMBL1201862, “PubChem BioAssay data set” (2004).

Structures are written as SMILES.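 Five concentrations, 48 hours, 96-well plates. Abbreviation: GI50, concentration required for 50% inhibition of growth.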 Calls of active or inactive are those of the source. Rule as the data show it: active = GI50 up to about 1.1 µM and inactive = higher.

Holding throughout (assay): DTP human tumour cell line panel, 48 h
Test [1] deals with CAKI-1.
The subject of test [2] is U-251.
In test [3] the test system is HCT-116.
Test [4] concerns LOX IMVI.
Test [5] deals with HCT-15.
For test [6], the system named is SF-295.
The subject of test [7] is Malme-3M.
The subject of test [8] is SF-539.
Test [9] concerns NCI-H522.
Test [10] concerns HL-60.
The subject of test [11] is PC-3.
Test [12] concerns Hs-578T.
In test [13] the test system is SNB-19.
For test [14], the system named is SK-MEL-2.
The test system of test [15] is SR.
The test system of test [16] is MDA-N.
In test [17] the test system is SK-MEL-5.
Test [18] relates to UO-31.

Broadly, the GI50 is the concentration at which growth is held to half of that of the control. With `COc1cc(C2CC(C)(O)Oc3cc4c(cc32)OCO4)cc(OC)c1OC` (stereo not drawn), the GI50 was 0.417 µM (active) in test [1]; 0.358 µM (active) in [2]; 0.449 µM (active) in test [3]; 0.839 µM (active) in test [4]; 0.521 µM in test [5]; 0.184 µM (active) in test [6]. The concentration for 50% growth inhibition (GI50) is 0.205 µM (active) in [7]; 0.195 µM (active) in test [8]; 0.266 µM (active) in [9]; 0.247 µM (active) in test [10]; 0.274 µM (active) in test [11]; 0.263 µM (active) in test [12]. Further, the 50% growth inhibitory concentration (GI50) in test [13] is 0.617 µM (active); in test [14] it was 1.04 µM (active); in test [15], 0.374 µM (active); in test [16], 0.166 µM (active); in [17], 0.208 µM (active).

With `CC(C)(C)C(=O)Oc1ccc(/C=C/C(=O)c2ccc(OC(=O)C(C)(C)C)cc2)cc1`, the GI50 in test [1] is 21.1 µM (inactive); in test [2], 40.2 µM (inactive); in test [3] it was 23.3 µM (inactive); in test [4] it was 44.5 µM (inactive); in test [5], 96.4 µM; in test [6], 93.3 µM (inactive). The GI50 is > 100 µM (inactive) in test [7]; 33 µM (inactive) in test [8]; 3.12 µM (inactive) in [9]; 47 µM (inactive) in [10]; > 100 µM (inactive) in test [11]; 18 µM (inactive) in [12]. For the same compound, the GI50 in [13] is 45.2 µM (inactive); in [14], > 100 µM (inactive); in test [15], 20.7 µM (inactive); in [16], 39.1 µM (inactive); in test [17], > 100 µM (inactive).

`CC1=C2C(=O)OCC23C=COC3(C)O1` (stereo not drawn): the GI50 was 37 µM (inactive) in test [1]; 25.4 µM (inactive) in test [2]; 26.9 µM (inactive) in test [3]; 30.3 µM (inactive) in [4]; 26.2 µM in test [5]; 41.4 µM (inactive) in [6]. Moreover, the GI50 in test [7] was 27.9 µM (inactive); in test [8] it was 21.2 µM (inactive); in test [9], 29.1 µM (inactive); in test [18], 30.8 µM (inactive); in test [11], 38.2 µM (inactive); in [12], 50.4 µM (inactive). Also, the GI50 in test [13] is 58.9 µM (inactive); in test [14], 32.6 µM (inactive); in test [15], 8.38 µM (inactive); in test [16], 29 µM (inactive); in test [17], 18 µM (inactive).

Take `CC(C)=CCC/C(C)=C/CC/C(C)=C/CC/C(C=O)=C/CC/C(C)=C\CC/C(C)=C/CC/C(C)=C/CC/C(C)=C/CC1=CC(=O)C=CC1=O`: the GI50 in test [1] was 33 µM (inactive); in test [2] it was 69.7 µM (inactive); in [3] it was 73.5 µM (inactive); in [4], 80.2 µM (inactive); in test [5] it was above 100 µM; in test [6], 91.4 µM (inactive). The GI50 is 21.8 µM (inactive) in test [7]; 14.9 µM (inactive) in [9]; > 100 µM (inactive) in test [18]; > 100 µM (inactive) in test [11]; 62.4 µM (inactive) in test [12]; > 100 µM (inactive) in test [13]. Also, the GI50 in test [14] is 31.8 µM (inactive); in test [15], > 100 µM (inactive); in [16], > 100 µM (inactive); in test [17], 56 µM (inactive).

With `O=c1c2cc([N+](=O)[O-])ccc2[nH]n1Cc1ccccn1`, the GI50 in [1] was > 100 µM (inactive); in test [2], > 100 µM (inactive); in [3] it was > 100 µM (inactive); in [4], > 100 µM (inactive); in test [5] it was above 100 µM; in [6], > 100 µM (inactive). The GI50 in test [7], in test [8], in test [9], in [10], in [18] and in [11] was > 100 µM (inactive) each time. Besides, the GI50 in test [12], in test [13], in [15], in test [16] and in [17] was > 100 µM (inactive) throughout.

Consider `COc1ccc(C2=Nn3c(nnc3-c3ccccc3)S/C2=C\c2ccc(-c3ccc([N+](=O)[O-])cc3)o2)cc1`, for which the GI50 in test [1] is 51.2 µM (inactive); in test [2], 22.6 µM (inactive); in test [3], 29.6 µM (inactive); in test [4], 25 µM (inactive); in test [5], 16.5 µM; in test [6], 26.5 µM (inactive). The GI50 in test [7] is 34.8 µM (inactive); in test [9] it was 12.8 µM (inactive); in [10], 14.5 µM (inactive); in [18], 36.4 µM (inactive); in test [11], 27.3 µM (inactive); in test [12], 33.7 µM (inactive). Moreover, the GI50 in test [13] was 33.3 µM (inactive); in [14], 15.8 µM (inactive); in [15], 9.62 µM (inactive); in [16], 7.6 µM (inactive); in test [17], 27.6 µM (inactive).

With `CC(=O)c1ccccc1NCC(=O)Nn1cnc2ccc(S(=O)(=O)Nc3ccccc3C(C)=O)cc2c1=O`, the GI50 in [1] is > 100 µM (inactive); in [2], > 100 µM (inactive); in test [3], > 100 µM (inactive); in test [4], > 100 µM (inactive); in [5], above 100 µM; in test [6] it was > 100 µM (inactive). For the same compound, the GI50 in test [7], in [8], in [9], in test [10], in test [18] and in test [11] was > 100 µM (inactive) in each case. Also, the GI50 was 33.7 µM (inactive) in test [12]; > 100 µM (inactive) in test [13]; > 100 µM (inactive) in [14]; > 100 µM (inactive) in test [15]; > 100 µM (inactive) in [16].

In the case of `CCC1(CC)C(=O)NN(C(=O)c2ccc(Cl)cc2)C1=O`, the GI50 in test [1] is > 100 µM (inactive); in [2], > 100 µM (inactive); in test [3], > 100 µM (inactive); in test [4], > 100 µM (inactive); in test [5], above 100 µM; in [6] it was > 100 µM (inactive). Besides, the concentration for 50% growth inhibition (GI50) in [7] was 0.23 µM (active); in test [9], 32.1 µM (inactive); in [10] it was > 100 µM (inactive); in test [18], > 100 µM (inactive); in test [11], > 100 µM (inactive); in test [12] it was > 100 µM (inactive). Besides, the GI50 in test [13], in test [14], in [15], in test [16] and in test [17] was > 100 µM (inactive) each time.

Regarding `N=C(CCl)NC1CN2CCC1CC2` (stereo not drawn), the GI50 in [1] was 50.9 µM (inactive); in test [2], 49.1 µM (inactive); in test [3] it was > 100 µM (inactive); in test [4] it was 34.1 µM (inactive); in [5], above 100 µM; in test [6], > 100 µM (inactive). Also, the GI50 in test [7] is > 100 µM (inactive); in test [8], 60.5 µM (inactive); in test [9], 19.4 µM (inactive); in [10], 18.4 µM (inactive); in test [11] it was > 100 µM (inactive); in test [12], > 100 µM (inactive). Further, the GI50 in test [13] was > 100 µM (inactive); in test [14], > 100 µM (inactive); in test [15], 32.7 µM (inactive); in [16], > 100 µM (inactive); in test [17], > 100 µM (inactive).

Regarding `O=C(O)C/C=C/CC(=O)O`, the GI50 was > 100 µM (inactive) in test [1]; > 100 µM (inactive) in test [2]; > 100 µM (inactive) in [3]; > 100 µM (inactive) in [4]; above 100 µM in test [5]; > 100 µM (inactive) in [6]. In addition, the GI50 in test [7], in test [9], in test [10], in [18], in [11] and in [12] was > 100 µM (inactive) throughout. For the same compound, the GI50 in test [13], in test [14], in test [15], in test [16] and in test [17] was > 100 µM (inactive) each time.

In the case of `CCCCCc1cc2cc3c(c(O)c2c(=O)[nH]1)C1(CCC3)C(=O)c2c(O)c3c(c(O)c2C1=O)C(=O)C(OC)=CC3=O` (stereo not drawn), the GI50 in [1] was 0.502 µM (active); in test [2] it was 0.621 µM (active); in [3] it was 0.561 µM (active); in test [4], 0.661 µM (active); in [5] it was 0.42 µM; in [6], 1.91 µM (inactive). The concentration for 50% growth inhibition (GI50) in [7] was 0.468 µM (active); in [9], 0.59 µM (active); in test [10], 0.478 µM (active); in test [18] it was 0.579 µM (active); in [11] it was 1.1 µM (active); in test [12], 0.743 µM (active). For the same compound, the GI50 is 1.49 µM (inactive) in test [13]; 1.24 µM (inactive) in [14]; 0.573 µM (active) in [15]; 1.41 µM (inactive) in test [16]; 0.515 µM (active) in test [17].

On to `Cc1ccc(S(=O)(=O)N/N=C2/CCC3(O)CC2(C)CCC2[C@H]3CC2(C)C)cc1` (stereo partly drawn), for which the GI50 in test [1] was 52.6 µM (inactive); in test [2], 17.5 µM (inactive); in [3] it was 24.8 µM (inactive); in test [4] it was 11.2 µM (inactive); in test [5], 27.1 µM; in [6], 25.1 µM (inactive). Further, the GI50 in test [7] is 35.3 µM (inactive); in [9], 26.2 µM (inactive); in test [10] it was 31.3 µM (inactive); in [18], 25.7 µM (inactive); in [11], 12.5 µM (inactive); in test [12], 35.5 µM (inactive). For the same compound, the GI50 in test [13] was 37.7 µM (inactive); in test [14], 23.8 µM (inactive); in [15], 35.9 µM (inactive); in test [16], 30.7 µM (inactive); in test [17], 16.5 µM (inactive).
